pIC50: −log10 of the molar value.

23 molecules from US8895585B2, “Nicotinamide derivative or salt thereof” (FUJIFILM Corporation, priority 2010, dated 2014) can be followed below.

The first experiment addresses T1, glutathione S-transferase (GST)-fused full-length human Syk protein (Homo sapiens, UniProt P43405).
T1 construct: (GST)-fused full-length human Syk protein; GST (glutathione S-transferase); purchased Carna Biosciences
As to the kind of experiment: Syk enzyme assay. The class given is biochemical. Particulars: Syk enzyme assay, Test Example 1; read-out: IC50 of Syk-inhibitory activity. As for the experimental part: A glutathione S-transferase (GST)-fused full-length human Syk protein (Carna Biosciences), which had been generated using a Baculovirus expression system, was used in the Syk enzyme assay.
15 μl of a reaction solution (1.2 ng Syk, 20 mM HEPES, 10 mM MgCl2, 50 mM NaCl, 2 mM DTT, 0.05% BSA, pH 7.0) containing a Syk protein and a predetermined concentration of a test compound was shaken for 2 minutes, and it was then left at rest at room temperature for 13 minutes. Thereafter, 5 μl of Biotin-EDPDYEWPSA-NH2 (final concentration: 0.4 μM) serving as a substrate peptide and 5 μl of ATP (final concentration: 27 μM) were added to the reaction solution, and the obtained mixture was then shaken for 2 minutes. The reaction solution was further left at rest at room temperature for 40 minutes, so as to carry out an enzyme reaction.
Thereafter, 50 μl of a reaction termination solution [5 μg/ml Streptavidin, 0.18 μg/ml PT66-K, 30 mM HEPES (pH 7.0), 150 mM KF, 75 mM EDTA, 0.15% BSA, 0.075% Tween20], which contained Streptavidin-Xlent (Cisbio) and Mab PT66-K (Cisbio), was added to the reaction solution to terminate the enzyme reaction. At the same time, the reaction solution was left at rest at room temperature for 1 hour, so as to carry out an antigen-antibody reaction. Thereafter, using EnVision (PerkinElmer), the time-resolved fluorescence was measured at 615 nm and 665 nm, so that the phosphorylation of the substrate peptide was measured.
In addition, the following are standards for evaluating IC50 of Syk-inhibitory activity used in Table 21. • A: Up to 10 nM • B: 10 to 50 nM • C: 50 to 100 nM • D: 100 to 1000 nM The set of numbers (XYZ-xyz) given in each Example number column indicates the corresponding Example number (Example XYZ-xyz) in Table 21.
As for `NC(=O)c1cc(F)c(N[C@H](c2ccccc2)[C@@H](N)c2ccccc2)nc1Nc1ccc2ncccc2c1` (racemic) [Example 006-135, 6-(((1R,2S)-2-amino-1,2-diphenylethyl)amino)-5-fluoro-2-(quinolin-6-ylamino)nicotinamide 6-(((1S,2R)-2-amino-1,2-diphenylethyl)amino)-5-fluoro-2-(quinolin-6-ylamino)nicotinamide], the negative-log IC50 (pIC50) was more than 8.00.

Regarding `Cn1ncc2cc(Nc3nc(N[C@H](c4ccccc4)[C@@H](N)c4ccccc4)c(F)cc3C(N)=O)ccc21` (racemic) [Example 006-136, 6-(((1R,2S)-2-amino-1,2-diphenylethyl)amino)-5-fluoro-2-((1-methyl-1H-indazol-5-yl)amino)nicotinamide 6-(((1S,2R)-2-amino-1,2-diphenylethyl)amino)-5-fluoro-2-((1-methyl-1H-indazol-5-yl)amino)nicotinamide], the negative logarithm of the IC50 (pIC50) was more than 8.00. Still for that read-out and setting: the figure for `COc1cc(Nc2nc(N[C@H](c3ccccc3)[C@@H](N)c3ccccc3)c(F)cc2C(N)=O)cc(OC)c1` (racemic) [Example 006-137, 6-(((1R,2S)-2-amino-1,2-diphenylethyl)amino)-2-((3,5-dimethoxyphenyl)amino)-5-fluoronicotinamide 6-(((1S,2R)-2-amino-1,2-diphenylethyl)amino)-2-((3,5-dimethoxyphenyl)amino)-5-fluoronicotinamide] is 7.30 to 8.00. Same read-out and setting: the result for `NC(=O)c1cc(F)c(N[C@H](c2ccccc2)[C@@H](N)c2ccccc2)nc1Nc1cccc(-n2nccn2)c1` (racemic) [Example 006-138, 2-((3-(2H-1,2,3-triazol-2-yl)phenyl)amino)-6-(((1R,2S)-2-amino-1,2-diphenylethyl)amino)-5-fluoronicotinamide 2-((3-(2H-1,2,3-triazol-2-yl)phenyl)amino)-6-(((1S,2R)-2-amino-1,2-diphenylethyl)amino)-5-fluoronicotinamide] reads 7.30 to 8.00; that for `Cc1cncc(Nc2nc(N[C@H](c3ccccc3)[C@@H](N)c3ccccc3)c(F)cc2C(N)=O)c1` (racemic) [Example 006-140, 6-(((1R,2S)-2-amino-1,2-diphenylethyl)amino)-5-fluoro-2-((5-methylpyridin-3-yl)amino)nicotinamide 6-(((1S,2R)-2-amino-1,2-diphenylethyl)amino)-5-fluoro-2-((5-methylpyridin-3-yl)amino)nicotinamide], 7.00 to 7.30; that for `NC(=O)c1cc(F)c(N[C@H](c2ccccc2)[C@@H](N)c2ccccc2)nc1Nc1ccc2cccnc2c1` (racemic) [Example 006-141, 6-(((1R,2S)-2-amino-1,2-diphenylethyl)amino)-5-fluoro-2-(quinolin-7-ylamino)nicotinamide 6-(((1S,2R)-2-amino-1,2-diphenylethyl)amino)-5-fluoro-2-(quinolin-7-ylamino)nicotinamide], 6.00 to 7.00. Regarding `COCCOc1ccc2cc(Nc3nc(N[C@H](C)[C@H](C)N)c(F)cc3C(N)=O)cnc2c1` (racemic) [Example 006-183, 6-(((2R,3S)-3-aminobutan-2-yl)amino)-5-fluoro-2-((7-(2-methoxyethoxy)quinolin-3-yl)amino)nicotinamide 6-(((2S,3R)-3-aminobutan-2-yl)amino)-5-fluoro-2-((7-(2-methoxyethoxy)quinolin-3-yl)amino)nicotinamide], the negative-log IC50 (pIC50) was more than 8.00. Turning to `C[C@H](N)[C@@H](C)Nc1nc(Nc2ccnc(-n3nccn3)c2)c(C(N)=O)cc1F` (racemic) [Example 006-189, 2-((2-(2H-1,2,3-triazol-2-yl)pyridin-4-yl)amino)-6-(((2R,3S)-3-aminobutan-2-yl)amino)-5-fluoronicotinamide 2-((2-(2H-1,2,3-triazol-2-yl)pyridin-4-yl)amino)-6-(((2S,3R)-3-aminobutan-2-yl)amino)-5-fluoronicotinamide], the pIC50 is 7.30 to 8.00. The same measure, in the same setting: the result for `COCCn1ncc2cc(Nc3nc(N[C@H](C)[C@H](C)N)c(F)cc3C(N)=O)ccc21` (racemic) [Example 006-197, 6-(((2R,3S)-3-aminobutan-2-yl)amino)-5-fluoro-2-((1-(2-methoxyethyl)-1H-indazol-5-yl)amino)nicotinamide 6-(((2S,3R)-3-aminobutan-2-yl)amino)-5-fluoro-2-((1-(2-methoxyethyl)-1H-indazol-5-yl)amino)nicotinamide] reads 7.30 to 8.00; that for `CC(=O)Nc1cc(Nc2nc(N[C@@H]3CCCC[C@@H]3N)c(F)cc2C(N)=O)ccn1` (relative stereo) [Example 004-048], 7.30 to 8.00; that for `CN1CCN(c2cncc(Nc3nc(N[C@@H]4CCCC[C@@H]4N)c(F)cc3C(N)=O)c2)CC1` (relative stereo) [Example 004-052], 7.30 to 8.00. Same read-out and setting: the result for `Cc1cc(Nc2nc(N[C@@H]3CCCC[C@@H]3N)c(F)cc2C(N)=O)cs1` (relative stereo) [Example 004-057] reads more than 8.00. As for `NC(=O)c1cc(F)c(N[C@@H]2CCCC[C@@H]2N)nc1Nc1cc(N2CCOCC2)nc2[nH]ccc12` (relative stereo) [Example 004-066, 6-(cis-2-aminocyclohexylamino)-5-fluoro-2-((6-morpholino-1H-pyrrolo[2,3-b]pyridin-4-yl)-amino)nicotinamide], the pIC50 is more than 8.00. With `NC(=O)c1cc(F)c(N[C@@H]2CCCC[C@@H]2N)nc1Nc1cc(-n2nccn2)nc2[nH]ccc12` (relative stereo) [Example 004-067, 2-((6-(2H-1,2,3-triazol-2-yl)-1H-pyrrolo[2,3-b]pyridin-4-yl)amino)-6-(cis-2-aminocyclohexylamino)-5-fluoronicotinamide], the pIC50 was more than 8.00.

`NC(=O)c1cc(F)c(N[C@@H]2CCCC[C@@H]2N)nc1Nc1ccc2[nH]ccc2c1` (relative stereo) [Example 004-070, 2-((1H-indol-5-yl)amino)-6-(cis-2-aminocyclohexylamino)-5-fluoronicotinamide]: the pIC50 was more than 8.00. Turning to `NC(=O)c1cc(F)c(N[C@@H]2CCCC[C@@H]2N)nc1Nc1cc(F)c2c(ccn2CCN2CCOCC2)c1` (relative stereo) [Example 004-080, 6-(cis-2-aminocyclohexylamino)-5-fluoro-2-((7-fluoro-1-(2-morpholinoethyl)-1H-indol-5-yl)amino)nicotinamide], the pIC50 was more than 8.00. Same read-out and setting: the result for `COCCn1ccc2cc(Nc3nc(N[C@@H]4CCCC[C@@H]4N)c(F)cc3C(N)=O)cc(F)c21` (relative stereo) [Example 004-081, 6-(cis-2-aminocyclohexylamino)-5-fluoro-2-((7-fluoro-1-(2-methoxyethyl)-1H-indol-5-yl)-amino)nicotinamide] reads more than 8.00; that for `NC(=O)c1cc(F)c(N[C@@H]2CCCC[C@@H]2N)nc1Nc1cc(F)cc2c1ccn2CCN1CCOCC1` (relative stereo) [Example 004-083, 6-(cis-2-aminocyclohexylamino)-5-fluoro-2-((6-fluoro-1-(2-morpholinoethyl)-1H-indol-4-yl)amino)nicotinamide], more than 8.00. Still for that read-out and setting: the result for `COCCn1ccc2c(Nc3nc(N[C@@H]4CCCC[C@@H]4N)c(F)cc3C(N)=O)cc(F)cc21` (relative stereo) [Example 004-084, 6-(cis-2-aminocyclohexylamino)-5-fluoro-2-((6-fluoro-1-(2-methoxyethyl)-1H-indol-4-yl)amino)nicotinamide] reads more than 8.00; that for `NC(=O)c1cc(F)c(N[C@@H]2CCCC[C@@H]2N)nc1Nc1cc(C(F)(F)F)cc2[nH]ccc12` (relative stereo) [Example 004-085, 6-(cis-2-aminocyclohexylamino)-5-fluoro-2-((6-(trifluoromethyl)-1H-indol-4-yl)amino)-nicotinamide], more than 8.00.

For `NC(=O)c1cc(F)c(N[C@@H]2CCCC[C@@H]2N)nc1Nc1ccc2c(cnn2CC2CC2)c1` (relative stereo) [Example 004-090, 6-(cis-2-aminocyclohexylamino)-2-((1-(cyclopropylmethyl)-1H-indazol-5-yl)amino)-5-fluoronicotinamide], the pIC50 was 7.30 to 8.00.

The experiment is the same for the next values; noted with them: read-out: Syk-inhibitory activity (IC50).
Turning to `NC(=O)c1cc(F)c(N[C@@H]2CCCC[C@@H]2N)nc1Nc1ccc(-c2ccccc2)nc1` (relative stereo) [Example 2-9, 6-(cis-2-aminocyclohexylamino)-5-fluoro-2-((6-phenylpyridin-3-yl)amino)nicotinamide], the pIC50 was not below 6.00. `COc1ccc(Nc2nc(N[C@@H]3CCCC[C@@H]3N)c(F)cc2C(N)=O)cn1` (relative stereo) [Example 2-10, 6-(cis-2-aminocyclohexylamino)-5-fluoro-2-((6-methoxypyridin-3-yl)amino)nicotinamide]: the pIC50 is not below 6.00.
